Data set [1] relates to MCF-7. As to conditions: MTT, 72 h; read-out: IC50 (µM ± SD) MCF-7; cited from earlier work.
Data set [2] has as its system normal MRC-5 cells. Details: method as in PMID 31655429. As to conditions: 72 h; read-out: IC50 (µM ± SD) MRC-5; cited from earlier work.
The test system of data set [3] is A2780. The settings on record: MTT, 72 h; read-out: IC50 (µM ± SD) A2780; cited from earlier work.
Data set [4] concerns 20 kinases. Details: method as in PMID 31655429. As to conditions: ALK1, CDK-2/cyclin A1, DYRK3, GSK3 alpha, NEK1; cited from earlier work.
Data set [5] deals with MCF-7, HCT116, and A2780 cancer cell lines. The data set can be described thus: MTT assay, three cancer cell lines taken together (average, overall range). The settings on record: Homo sapiens; MCF-7, HCT116, A2780; read-out: Average of the three IC50 values against the three cancer cell lines. The class given is cell-based, human. A general note: Formazan colour is commonly taken as a measure of viable cells.

Data set [6] concerns MCF-7 cells. Details: method as in PMID 31655429. As to conditions: 1 µM, 24 h; control 17.3%; cited from earlier work.
Data set [7] addresses T1, CDK-2 (Homo sapiens, UniProt P24941).
T1 construct: purchased Promega, Madison, WI
Further details: method as in PMID 17064068. The settings on record: read-out: IC50 against CDK-2; cited from earlier work.

Data set [8] has as its target T2, porcine tubulin (Sus scrofa, UniProt P02550+P02554).
T2 construct: purchased Cytoskeleton Inc., Denver, CO BK011P
The data set is described as follows: Tubulin polymerisation fluorescence-based assay. Format: biochemical. Here is the method: The effect of compounds 16a,b,d on tubulin polymerisation was measured in vitro using tubulin polymerisation fluorescence-based assay (cytoskeleton, cat. BK011P, https://www.cytoskeleton.com/bk011p). The assay was performed following the previous report[22] and according to the manufacturer’s instructions. Briefly, 2 mg/mL porcine tubulin was dissolved in buffer 1 (80 mM PIPES, 2 mM MgCl2, 0.5 mM EGTA pH 6.9, 10 µM fluorescent reporter, 1 mM GTP, 15% glycerol) to a final concentration of […]. Then tubulin solution was transferred to a pre-warmed 96-well plate that contained the test compounds 16a,b,d (5 μM), paclitaxel (3 μM), CaCl2 (0.5 μM), and control buffer. The polymerisation of tubulin was monitored as fluorescence at 37 °C for 60 min. Relative fluorescence units (RFU) were determined at 360 nm for excitation and at 460 nm for emission using the Varioskan Flash spectral scanning multimode reader (Thermo Fisher Scientific, Roskilde, Denmark) at a reading speed of 1 cycle/min.
In the current study, the new compounds were designed bearing the trimethoxy phenyl moiety aiming to obtain new cytotoxic agents that can interfere with tubulin polymerisation in cancer cells. […] In this assay, light scattering by microtubules which is directly proportional to the concentration of the microtubule polymer was used as a measure of tubulin polymerisation. The study was performed using a fluorescence-based tubulin polymerisation assay kit (Cytoskeleton Inc., Denver, CO; Cat # BK011P) following the manufacturer’s instructions (https://www.cytoskeleton.com/bk011p) and according to the previous report.
Paclitaxel (3 μM) was used as a tubulin polymerisation enhancer (positive control, enhancer), while calcium chloride (CaCl2, 0.5 μM) was used as a positive control (inhibitor) as per the manufacturer’s instructions (https://www.cytoskeleton.com/pdf-storage/datasheets/bk011p.pdf). The vehicle was also used to evaluate the polymerisation when tubulin is incubated in the absence of the test compound. The effect of the selected compounds (5 μM) on tubulin polymerisation was evaluated and compared with those of the positive control. The results are represented in Figure 8.

Data set [9] addresses T3, Aurora A (Homo sapiens, UniProt O14965).
T3 sequence (O14965 1-403): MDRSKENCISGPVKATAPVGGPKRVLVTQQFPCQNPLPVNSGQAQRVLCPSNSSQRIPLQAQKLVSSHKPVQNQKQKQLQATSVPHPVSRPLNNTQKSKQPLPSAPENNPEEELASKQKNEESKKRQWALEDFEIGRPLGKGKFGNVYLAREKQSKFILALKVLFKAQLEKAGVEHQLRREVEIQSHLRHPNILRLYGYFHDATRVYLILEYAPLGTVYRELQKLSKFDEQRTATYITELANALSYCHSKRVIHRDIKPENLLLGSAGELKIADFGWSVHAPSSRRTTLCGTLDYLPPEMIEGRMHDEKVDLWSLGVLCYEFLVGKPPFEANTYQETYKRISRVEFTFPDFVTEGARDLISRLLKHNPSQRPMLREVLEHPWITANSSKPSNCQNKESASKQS
The data set is described as follows: Kinase profiling test. As to conditions: stated as inhibition. The class given is biochemical. Here is the method:
The test was performed using the radiolabeled ATP determination method (KINEXUS Bioinformatics Corporation, Vancouver, Canada). The test was performed following the previous reports[13]^,[20].
The three compounds were tested at the same concentration (10 μM) against the same 20 kinases used in the previous report. The test was performed by KINEXUS Bioinformatics Corporation (Vancouver, Canada), following previous reports[13]^,[20].

Data set [10] deals with tubulin assembly. Further details: method as in PMID 24890652. As to conditions: cited from earlier work.
Data set [11] deals with VEGFR-2. Further details: method as in PMID 24890652. The settings on record: cited from earlier work.
Data set [12] has as its system HDAC2. The settings on record: cited from earlier work.
Data set [13] relates to HDAC3. The settings on record: cited from earlier work.
Data set [14] relates to a panel of cancer cell lines. As to conditions: read-out: cytotoxic activity IC50; cited from earlier work.
The subject of data set [15] is HDAC1. As to conditions: cited from earlier work.

T2 sequence (P02550 whole entry): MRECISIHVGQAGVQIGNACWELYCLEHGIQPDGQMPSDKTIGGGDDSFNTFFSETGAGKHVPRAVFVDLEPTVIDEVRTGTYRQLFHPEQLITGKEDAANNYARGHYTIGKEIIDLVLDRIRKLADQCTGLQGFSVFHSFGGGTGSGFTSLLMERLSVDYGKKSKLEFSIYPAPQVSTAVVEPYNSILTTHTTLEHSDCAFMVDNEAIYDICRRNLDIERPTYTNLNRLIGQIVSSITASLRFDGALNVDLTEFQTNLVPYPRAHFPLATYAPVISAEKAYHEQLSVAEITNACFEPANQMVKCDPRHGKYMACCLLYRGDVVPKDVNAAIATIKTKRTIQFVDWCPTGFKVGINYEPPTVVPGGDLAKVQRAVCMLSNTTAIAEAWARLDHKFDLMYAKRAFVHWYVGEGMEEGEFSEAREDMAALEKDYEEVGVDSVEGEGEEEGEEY
T2 sequence (P02554 whole entry): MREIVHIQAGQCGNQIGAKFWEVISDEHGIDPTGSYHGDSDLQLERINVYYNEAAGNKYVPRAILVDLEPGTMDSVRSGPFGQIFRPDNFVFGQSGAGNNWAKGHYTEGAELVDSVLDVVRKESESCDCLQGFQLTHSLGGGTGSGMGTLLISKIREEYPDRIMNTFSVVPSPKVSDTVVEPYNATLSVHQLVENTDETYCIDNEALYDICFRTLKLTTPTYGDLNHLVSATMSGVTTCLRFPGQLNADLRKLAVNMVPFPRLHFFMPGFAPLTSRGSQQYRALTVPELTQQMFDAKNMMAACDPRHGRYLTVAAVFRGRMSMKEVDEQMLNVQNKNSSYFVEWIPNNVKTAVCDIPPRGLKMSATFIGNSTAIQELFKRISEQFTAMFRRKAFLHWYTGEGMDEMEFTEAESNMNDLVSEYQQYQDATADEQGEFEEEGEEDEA

The IC50 is the concentration that gives 50% inhibition. Regarding `CC(C)C/C=N/c1c(C#N)c2n(c1C(=O)Nc1ccc(Br)cc1)CCC2` [9a], the IC50 in [1] was 0.1 ± 0.05 µM; in data set [2], 25.8 ± 0.73 µM; in data set [3] it was 0.52 ± 0.02 µM; in data set [5], 310 nM. In data set [4], the “inhibition% over the inhibited kinases of the panel” value is recorded as 3–25%. Further, the “Cell cycle S phase %” value in data set [6] is listed as 55.6%.

Consider `N#Cc1c(/N=C/c2ccccc2)c(C(=O)Nc2ccc(Br)cc2)n2c1CCC2` [9b], for which the IC50 in [1] was 0.5 ± 0.15 µM; in data set [2], 9 ± 0.13 µM; in data set [3] it was 4.16 ± 1.27 µM; in data set [5], 2330 nM.

For the compound `Nc1n[nH]c(N)c1/N=N/c1ccc(O)cc1` [CAN508, 4-[(E)-(3,5-diamino-1H-pyrazol-4-yl)diazenyl)phenol], the IC50 in [7] is 3500 nM.

For the compound `[Ca+2].[Cl-].[Cl-]` [CaCl2, calcium chloride, reference compound], the “effect on tubulin polymerisation” value in data set [8] (0.5 μM, positive control (inhibitor)) is “inhibited tubulin polymerisation and reduced the final polymer mass”.

Broadly, the inhibition is how much of the control response was suppressed. Higher therefore signals a response far below the control. `Cc1ccc(NC(=O)c2ccc(CN3CCN(C)CC3)cc2)cc1Nc1nccc(-c2cccnc2)n1` [Imatinib, reference compound] showed an inhibition at 10 µM in data set [9] of 38%.

With `COc1ccc(N(C)c2nc(C)nc3oc(C)cc23)cc1` [compound 7], the values for the IC50 in data set [10] and in [11] were 1.9 nM and […], respectively.

In the case of `COc1cc2c(c(OC)c1OC)-c1ccc(OC)c(=O)cc1[C@@H](NCc1ccc(C(=O)Nc3ccccc3N)cc1)CC2` [compound 8], the half-inhibitory concentration (IC50) in [12] is 6730 nM; in data set [13], 11200 nM; in data set [14] it was 2 to 105 nM; in data set [15], 12500 nM.

On to `CC(=O)O[C@H]1C(=O)[C@@]2(C)[C@H]([C@H](OC(=O)c3ccccc3)[C@]3(O)C[C@H](OC(=O)[C@H](O)[C@@H](NC(=O)c4ccccc4)c4ccccc4)C(C)=C1C3(C)C)[C@]1(OC(C)=O)CO[C@@H]1C[C@@H]2O` [paclitaxel, reference compound], for which, in [8] (3 μM, positive control (enhancer)), the “effect on tubulin polymerisation” value was “eliminated the nucleation phase I and enhanced the growth phase II”.

(Values after publication PMC8221158, “Novel pyrrolizines bearing 3,4,5-trimethoxyphenyl moiety: design, synthesis, molecular docking, and biological evaluation as potential multi-target cytotoxic agents” (Journal of Enzyme Inhibition and Medicinal Chemistry, 2021).)
